Measurements reported in ChEMBL document CHEMBL4414650, “Discovery of an Oleanolic Acid/Hederagenin-Nitric Oxide Donor Hybrid as an EGFR Tyrosine Kinase Inhibitor for Non-Small-Cell Lung Cancer” (J Nat Prod, 2019).
Calls of active or inactive are those of the source. The rule behind the calls is not given here.

How the values were obtained:
NCI-H1975 [1] = experiment: Antiproliferative activity against human NCI-H1975 cells assessed as induction of NO production at 100 uM incubated for 150 mins by Griess reagent based assay; assay type: functional, cell-based
[2] = target: Epidermal growth factor receptor (Homo sapiens, UniProt P00533, L858R/T790M); experiment: biochemical; assay type: cell-based, Sf9
A549 = experiment: Antiproliferative activity against human A549 cells harbouring wild type EGFR incubated for 72 hrs by SRB assay; assay type: functional, cell-based; conditions: A549, 72 h
NCI-H1975 [3] = experiment: Antiproliferative activity against human NCI-H1975 cells incubated for 72 hrs by MTS assay; assay type: functional, cell-based; conditions: NCI-H1975, 72 h
[4] = target: Epidermal growth factor receptor (Homo sapiens, UniProt P00533); experiment: biochemical; assay type: cell-based, Sf9
Description: Inhibition of C-terminal His-tagged/ N-terminal GST-tagged recombinant human EGFR (668 to 1210 residues) expressed in a Baculovirus infected Sf9 cell expression system using poly-EY as substrate incubated for 30 mins by ADP-Glo kinase assay

[5] = target: Epidermal growth factor receptor (Homo sapiens, UniProt P00533, C797S/L858R/T790M); experiment: biochemical; assay type: cell-based, Sf9
[6] = Antiproliferative activity against human KB-VIN10 cells incubated for 72 hrs by SRB assay; assay type: functional, cell-based; conditions: KB-VIN10, 72 h
MDA-MB-231 = experiment: Antiproliferative activity against human MDA-MB-231 cells incubated for 72 hrs by SRB assay; assay type: functional, cell-based; conditions: MDA-MB-231, 72 h
KB = experiment: Antiproliferative activity against human KB cells incubated for 72 hrs by SRB assay; assay type: functional, cell-based
NCI-H1975 [7] = experiment: Antiproliferative activity against human NCI-H1975 cells assessed as induction of NO production at 25 uM preincubated for 1 hr with hemoglobin followed by compound addition and measured after 48 hrs by Griess reagent based assay; assay type: functional, cell-based
MCF7 = experiment: Antiproliferative activity against human MCF7 cells incubated for 72 hrs by SRB assay; assay type: functional, cell-based; conditions: MCF7, 72 h
NCI-H1975 [8] = experiment: cells; assay type: functional, cell-based; conditions: Homo sapiens, NCI-H1975, 72 h

Sequence of Epidermal growth factor receptor (Homo sapiens, UniProt P00533, C797S/L858R/T790M) (P00533 25-1210 T790M/C797S/L858R limits assumed): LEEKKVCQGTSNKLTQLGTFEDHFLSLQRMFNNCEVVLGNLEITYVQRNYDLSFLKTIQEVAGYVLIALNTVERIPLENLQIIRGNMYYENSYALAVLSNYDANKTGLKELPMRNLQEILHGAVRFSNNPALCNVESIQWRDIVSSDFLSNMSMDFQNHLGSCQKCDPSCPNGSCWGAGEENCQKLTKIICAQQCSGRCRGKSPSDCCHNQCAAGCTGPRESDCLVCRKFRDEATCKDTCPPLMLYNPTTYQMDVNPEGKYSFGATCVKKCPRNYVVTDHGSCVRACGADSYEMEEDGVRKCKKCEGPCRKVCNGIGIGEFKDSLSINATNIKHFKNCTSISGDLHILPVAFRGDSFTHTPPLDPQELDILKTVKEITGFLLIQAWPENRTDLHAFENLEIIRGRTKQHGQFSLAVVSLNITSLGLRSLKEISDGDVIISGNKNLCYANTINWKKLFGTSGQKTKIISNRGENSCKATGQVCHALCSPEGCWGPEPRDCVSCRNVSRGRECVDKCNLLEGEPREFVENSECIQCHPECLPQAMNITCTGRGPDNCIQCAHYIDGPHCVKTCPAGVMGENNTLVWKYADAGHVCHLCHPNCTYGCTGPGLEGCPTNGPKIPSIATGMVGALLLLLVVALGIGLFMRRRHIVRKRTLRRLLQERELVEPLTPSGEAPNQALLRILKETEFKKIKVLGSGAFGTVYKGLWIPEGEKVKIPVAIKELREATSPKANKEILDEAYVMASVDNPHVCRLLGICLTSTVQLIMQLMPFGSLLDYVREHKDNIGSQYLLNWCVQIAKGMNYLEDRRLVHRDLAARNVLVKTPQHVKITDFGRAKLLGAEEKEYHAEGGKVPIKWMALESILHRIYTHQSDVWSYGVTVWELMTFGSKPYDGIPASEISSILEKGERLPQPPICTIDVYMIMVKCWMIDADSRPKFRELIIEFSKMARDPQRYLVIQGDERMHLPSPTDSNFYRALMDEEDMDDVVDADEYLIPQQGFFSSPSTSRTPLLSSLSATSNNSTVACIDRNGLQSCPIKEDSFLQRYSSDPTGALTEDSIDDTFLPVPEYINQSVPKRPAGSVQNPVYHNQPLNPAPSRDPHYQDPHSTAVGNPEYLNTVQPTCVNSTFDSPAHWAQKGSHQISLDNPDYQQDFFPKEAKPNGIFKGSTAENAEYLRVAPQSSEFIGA
Sequence of Epidermal growth factor receptor (Homo sapiens, UniProt P00533, L858R/T790M) (P00533 25-1210 T790M/L858R limits assumed): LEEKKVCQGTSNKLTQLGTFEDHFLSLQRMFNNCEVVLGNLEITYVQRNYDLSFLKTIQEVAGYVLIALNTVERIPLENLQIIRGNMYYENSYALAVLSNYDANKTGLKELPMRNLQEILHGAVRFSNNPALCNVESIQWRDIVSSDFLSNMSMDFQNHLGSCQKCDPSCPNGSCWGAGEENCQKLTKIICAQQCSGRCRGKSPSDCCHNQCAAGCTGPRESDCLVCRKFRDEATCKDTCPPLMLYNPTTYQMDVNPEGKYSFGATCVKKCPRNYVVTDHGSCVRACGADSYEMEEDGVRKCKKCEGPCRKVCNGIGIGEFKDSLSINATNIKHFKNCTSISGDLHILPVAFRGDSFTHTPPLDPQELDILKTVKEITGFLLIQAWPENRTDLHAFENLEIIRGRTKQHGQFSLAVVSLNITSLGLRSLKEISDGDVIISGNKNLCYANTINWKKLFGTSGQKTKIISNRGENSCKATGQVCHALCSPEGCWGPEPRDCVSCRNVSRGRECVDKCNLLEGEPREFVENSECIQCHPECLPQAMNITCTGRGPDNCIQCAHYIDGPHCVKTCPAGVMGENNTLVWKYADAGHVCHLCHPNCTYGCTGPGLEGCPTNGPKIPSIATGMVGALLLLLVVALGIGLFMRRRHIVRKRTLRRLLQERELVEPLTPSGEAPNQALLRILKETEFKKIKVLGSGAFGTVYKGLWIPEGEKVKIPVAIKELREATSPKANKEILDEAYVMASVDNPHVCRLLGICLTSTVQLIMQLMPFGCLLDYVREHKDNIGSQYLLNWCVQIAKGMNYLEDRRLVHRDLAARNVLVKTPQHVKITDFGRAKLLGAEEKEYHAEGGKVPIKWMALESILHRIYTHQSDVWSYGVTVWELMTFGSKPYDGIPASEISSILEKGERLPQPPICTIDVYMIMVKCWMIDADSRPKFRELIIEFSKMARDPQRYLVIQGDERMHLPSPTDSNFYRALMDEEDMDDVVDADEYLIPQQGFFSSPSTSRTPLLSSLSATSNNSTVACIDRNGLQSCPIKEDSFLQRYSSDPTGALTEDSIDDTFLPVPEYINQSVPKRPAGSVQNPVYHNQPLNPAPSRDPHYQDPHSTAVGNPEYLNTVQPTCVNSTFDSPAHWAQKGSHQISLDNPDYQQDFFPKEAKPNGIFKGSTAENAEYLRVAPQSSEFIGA
Sequence of Epidermal growth factor receptor (Homo sapiens, UniProt P00533) (P00533 whole entry): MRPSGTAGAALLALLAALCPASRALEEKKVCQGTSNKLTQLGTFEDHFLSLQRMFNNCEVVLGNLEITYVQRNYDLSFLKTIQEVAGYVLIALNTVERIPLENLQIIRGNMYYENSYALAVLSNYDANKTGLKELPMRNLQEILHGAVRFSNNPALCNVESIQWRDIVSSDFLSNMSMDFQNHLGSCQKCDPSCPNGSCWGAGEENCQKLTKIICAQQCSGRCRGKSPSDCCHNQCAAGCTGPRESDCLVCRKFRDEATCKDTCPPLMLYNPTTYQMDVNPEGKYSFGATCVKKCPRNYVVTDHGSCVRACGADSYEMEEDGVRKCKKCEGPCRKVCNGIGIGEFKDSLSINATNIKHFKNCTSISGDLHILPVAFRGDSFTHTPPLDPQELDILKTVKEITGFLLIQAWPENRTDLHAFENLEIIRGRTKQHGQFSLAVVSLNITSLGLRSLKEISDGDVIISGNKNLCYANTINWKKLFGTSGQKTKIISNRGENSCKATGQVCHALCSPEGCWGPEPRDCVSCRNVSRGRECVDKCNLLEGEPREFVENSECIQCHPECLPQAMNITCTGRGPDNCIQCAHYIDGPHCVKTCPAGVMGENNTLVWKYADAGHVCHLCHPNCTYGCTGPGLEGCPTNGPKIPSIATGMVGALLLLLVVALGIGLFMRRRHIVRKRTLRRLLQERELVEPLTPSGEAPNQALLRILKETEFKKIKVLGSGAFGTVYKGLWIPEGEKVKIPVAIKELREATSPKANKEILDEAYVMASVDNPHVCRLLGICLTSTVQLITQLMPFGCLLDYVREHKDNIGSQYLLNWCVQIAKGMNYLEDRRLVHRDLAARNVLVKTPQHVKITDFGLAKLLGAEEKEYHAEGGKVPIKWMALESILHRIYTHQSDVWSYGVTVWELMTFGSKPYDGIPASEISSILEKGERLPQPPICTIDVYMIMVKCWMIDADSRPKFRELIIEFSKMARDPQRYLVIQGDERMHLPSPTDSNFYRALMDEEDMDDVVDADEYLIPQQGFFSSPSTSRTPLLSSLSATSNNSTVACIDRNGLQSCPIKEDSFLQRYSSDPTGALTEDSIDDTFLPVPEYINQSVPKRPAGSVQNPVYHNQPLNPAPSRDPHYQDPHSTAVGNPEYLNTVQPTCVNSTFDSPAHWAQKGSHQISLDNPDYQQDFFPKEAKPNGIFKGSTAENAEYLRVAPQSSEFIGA

CC(=O)OC[C@@]1(C)[C@@H]2CC[C@]3(C)[C@H](CC=C4[C@@H]5CC(C)(C)CC[C@]5(C(=O)OCCCCO[N+](=O)[O-])CC[C@]43C)[C@@]2(C)CC[C@@H]1OC(C)=O
Activity (NCI-H1975 [1]): Active | IC50 [2]: > 20 µM | IC50 (A549): 4.6 µM | IC50 (NCI-H1975 [3]): 8.1 µM | IC50 [4]: 0.06 µM | IC50 [5]: 0.01 µM | IC50 [6]: 4.8 µM | IC50 (MDA-MB-231): 5.2 µM | IC50 (KB): 5.1 µM | Activity (NCI-H1975 [7]): inactive | IC50 (MCF7): 5 µM | IC50 (NCI-H1975 [8]): 7.6 µM

CC1(C)CC[C@]2(C(=O)OCCCCO[N+](=O)[O-])CC[C@]3(C)C(=CC[C@@H]4[C@@]5(C)CC[C@H](O)[C@@](C)(CO)[C@@H]5CC[C@]43C)[C@@H]2C1
Activity (NCI-H1975 [1]): Active | IC50 [2]: > 20 µM | IC50 (A549): 9.3 µM | IC50 (NCI-H1975 [3]): > 10 µM | IC50 [4]: 0.19 µM | IC50 [5]: 0.04 µM | IC50 [6]: > 10 µM | IC50 (MDA-MB-231): > 10 µM | IC50 (KB): > 10 µM | IC50 (MCF7): 8 µM | IC50 (NCI-H1975 [8]): > 10 µM

CC(=O)O[C@H]1CC[C@]2(C)[C@H]3CC=C4[C@@H]5CC(C)(C)CC[C@]5(C(=O)OCCCCO[N+](=O)[O-])CC[C@@]4(C)[C@]3(C)CC[C@H]2C1(C)C
Activity (NCI-H1975 [1]): Active | IC50 [2]: > 20 µM | IC50 (A549): 4.8 µM | IC50 (NCI-H1975 [3]): > 10 µM | IC50 [4]: 0.1 µM | IC50 [5]: 0.02 µM | IC50 [6]: 5.1 µM | IC50 (MDA-MB-231): 5.4 µM | IC50 (KB): 5.3 µM | Activity (NCI-H1975 [7]): inactive | IC50 (MCF7): 5.2 µM | IC50 (NCI-H1975 [8]): > 10 µM

CC(=O)OC[C@@]1(C)[C@@H]2CC[C@]3(C)[C@H](CC=C4[C@@H]5CC(C)(C)CC[C@]5(C(=O)OCCO[N+](=O)[O-])CC[C@]43C)[C@@]2(C)CC[C@@H]1OC(C)=O
Activity (NCI-H1975 [1]): Active | IC50 (A549): 5.3 µM | IC50 [6]: > 40 µM | IC50 (MDA-MB-231): 7.3 µM | IC50 (KB): 7 µM | IC50 (MCF7): > 10 µM

CC(=O)O[C@H]1CC[C@]2(C)[C@H]3CC=C4[C@@H]5CC(C)(C)CC[C@]5(C(=O)OCCCCCCO[N+](=O)[O-])CC[C@@]4(C)[C@]3(C)CC[C@H]2C1(C)C
Activity (NCI-H1975 [1]): Active | IC50 (A549): 5 µM | IC50 [6]: 7.6 µM | IC50 (MDA-MB-231): 5.3 µM | IC50 (KB): 5.1 µM | IC50 (MCF7): 6.4 µM

CC1(C)CC[C@]2(C(=O)OCCCCO[N+](=O)[O-])CC[C@]3(C)C(=CC[C@@H]4[C@@]5(C)CC[C@H](OCc6ccccc6)C(C)(C)[C@@H]5CC[C@]43C)[C@@H]2C1
IC50 [2]: > 20 µM | IC50 (A549): > 10 µM | IC50 (NCI-H1975 [3]): > 10 µM | IC50 [4]: > 20 µM | IC50 [5]: > 20 µM | IC50 [6]: > 10 µM | IC50 (MDA-MB-231): > 10 µM | IC50 (KB): > 10 µM | IC50 (MCF7): > 10 µM | IC50 (NCI-H1975 [8]): > 10 µM

CC(=O)O[C@H]1C(=O)[C@@]2(C)[C@H]([C@H](OC(=O)c3ccccc3)[C@]3(O)C[C@H](OC(=O)[C@H](O)[C@@H](NC(=O)c4ccccc4)c4ccccc4)C(C)=C1C3(C)C)[C@]1(OC(C)=O)CO[C@@H]1C[C@@H]2O [PACLITAXEL]
IC50 [6]: > 10 µM | IC50 (MCF7): > 10 µM

COc1cc(N2CCC(N3CCN(C)CC3)CC2)ccc1Nc1ncc(Cl)c(Nc2ccccc2P(C)(C)=O)n1 [BRIGATINIB]
IC50 (NCI-H1975 [3]): 0.62 µM | IC50 (NCI-H1975 [8]): 0.64 µM

CC1(C)CC[C@]2(C(=O)OCCCCO[N+](=O)[O-])CC[C@]3(C)C(=CC[C@@H]4[C@@]5(C)CC[C@H](OC(=O)/C=C/c6ccc7c(c6)OCO7)C(C)(C)[C@@H]5CC[C@]43C)[C@@H]2C1
IC50 [2]: > 20 µM | IC50 (NCI-H1975 [3]): > 10 µM | IC50 [4]: > 20 µM | IC50 [5]: > 20 µM | IC50 (NCI-H1975 [8]): > 10 µM

CC1(C)CC[C@]2(C(=O)OCCCCO[N+](=O)[O-])CC[C@]3(C)C(=CC[C@@H]4[C@@]5(C)CC[C@H](OC(=O)c6ccc([N+](=O)[O-])cc6)C(C)(C)[C@@H]5CC[C@]43C)[C@@H]2C1
IC50 [2]: > 20 µM | IC50 (NCI-H1975 [3]): > 10 µM | IC50 [4]: > 20 µM | IC50 [5]: > 20 µM | IC50 (NCI-H1975 [8]): > 10 µM

CC1(C)CC[C@]2(C(=O)O)CC[C@]3(C)C(=CC[C@@H]4[C@@]5(C)CC[C@H](O)[C@@](C)(CO)[C@@H]5CC[C@]43C)[C@@H]2C1 [HEDERAGENIN]
IC50 [2]: > 20 µM | IC50 (A549): > 10 µM | IC50 (NCI-H1975 [3]): > 10 µM | IC50 [4]: > 20 µM | IC50 [5]: > 20 µM | IC50 [6]: > 10 µM | IC50 (MDA-MB-231): > 10 µM | IC50 (KB): > 10 µM | IC50 (MCF7): > 10 µM | IC50 (NCI-H1975 [8]): > 10 µM

C=CC(=O)O[C@H]1CC[C@]2(C)[C@H]3CC=C4[C@@H]5CC(C)(C)CC[C@]5(C(=O)OCCCCO[N+](=O)[O-])CC[C@@]4(C)[C@]3(C)CC[C@H]2C1(C)C
IC50 [2]: > 20 µM | IC50 (A549): > 10 µM | IC50 (NCI-H1975 [3]): > 10 µM | IC50 [4]: > 20 µM | IC50 [5]: > 20 µM | IC50 [6]: > 10 µM | IC50 (MDA-MB-231): > 10 µM | IC50 (KB): > 10 µM | IC50 (MCF7): > 10 µM | IC50 (NCI-H1975 [8]): > 10 µM
